# Assay results reported in ChEMBL document CHEMBL2074351, “Characterization of the major metabolites of verapamil as substrates and inhibitors of P-glycoprotein” (J Pharmacol Exp Ther, 2000).
# Columns and labels:
# [1] = target: T1, ATP-dependent translocase ABCB1 (Homo sapiens, UniProt P08183); experiment: TP_TRANSPORTER: inhibition of Digoxin transepithelial transport (basal to apical) (Digoxin: 5 uM) in Caco-2 cells; format: functional, cell-based
# [2] = target: T1, ATP-dependent translocase ABCB1; experiment: TP_TRANSPORTER: transepithelial transport (basal to apical) in MDR1-expressing LLC-PK1 cells; format: functional, cell-based; details: pig
# T1 sequence (P08183 whole entry): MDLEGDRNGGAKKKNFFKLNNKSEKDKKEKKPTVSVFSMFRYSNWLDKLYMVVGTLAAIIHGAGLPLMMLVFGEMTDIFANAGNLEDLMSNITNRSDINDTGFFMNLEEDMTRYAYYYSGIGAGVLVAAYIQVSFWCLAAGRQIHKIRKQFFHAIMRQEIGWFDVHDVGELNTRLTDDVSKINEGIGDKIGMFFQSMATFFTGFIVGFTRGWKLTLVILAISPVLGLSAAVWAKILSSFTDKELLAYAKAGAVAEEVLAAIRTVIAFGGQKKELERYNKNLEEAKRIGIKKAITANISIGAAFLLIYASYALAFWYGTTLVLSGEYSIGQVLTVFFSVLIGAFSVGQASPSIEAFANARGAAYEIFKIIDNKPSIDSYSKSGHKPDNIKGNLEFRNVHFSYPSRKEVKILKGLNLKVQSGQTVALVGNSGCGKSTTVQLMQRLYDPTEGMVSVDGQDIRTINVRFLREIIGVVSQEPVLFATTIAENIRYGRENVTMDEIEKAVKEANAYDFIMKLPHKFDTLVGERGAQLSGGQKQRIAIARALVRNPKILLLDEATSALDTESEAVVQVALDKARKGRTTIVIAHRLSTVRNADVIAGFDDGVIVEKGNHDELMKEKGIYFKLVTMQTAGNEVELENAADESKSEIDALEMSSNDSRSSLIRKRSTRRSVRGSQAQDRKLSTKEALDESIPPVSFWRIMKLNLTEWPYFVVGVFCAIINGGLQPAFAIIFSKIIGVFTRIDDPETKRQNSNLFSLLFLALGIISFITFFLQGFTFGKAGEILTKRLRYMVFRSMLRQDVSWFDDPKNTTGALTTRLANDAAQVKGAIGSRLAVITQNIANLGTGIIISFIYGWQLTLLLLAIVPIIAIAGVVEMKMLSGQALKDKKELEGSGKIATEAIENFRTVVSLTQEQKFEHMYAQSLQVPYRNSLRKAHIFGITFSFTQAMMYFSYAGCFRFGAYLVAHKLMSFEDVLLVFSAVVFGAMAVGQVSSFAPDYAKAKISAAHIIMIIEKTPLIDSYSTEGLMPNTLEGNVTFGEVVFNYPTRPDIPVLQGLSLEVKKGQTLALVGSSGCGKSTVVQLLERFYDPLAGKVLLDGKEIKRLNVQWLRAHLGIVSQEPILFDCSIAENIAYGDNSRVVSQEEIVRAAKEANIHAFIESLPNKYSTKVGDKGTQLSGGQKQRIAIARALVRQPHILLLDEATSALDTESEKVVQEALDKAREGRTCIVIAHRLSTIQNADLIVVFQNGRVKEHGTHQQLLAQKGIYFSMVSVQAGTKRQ
SMILES,IC50 [1] [nM],Activity [2]
COc1ccc([C@@](C#N)(CCCN(C)CCc2ccc(OC)c(OC)c2)C(C)C)cc1O,1600,–
COc1ccc([C@@](C#N)(CCCN)C(C)C)cc1OC,–,substrate [+]
CNCCCC(C#N)(c1ccc(OC)c(OC)c1)C(C)C (stereo unspecified),–,substrate [+]

# The remaining lines, values ahead:
IC50 [1] [nM],Activity [2],SMILES
300,substrate [+],COc1ccc(CCNCCCC(C#N)(c2ccc(OC)c(OC)c2)C(C)C)cc1OC (stereo unspecified) [NORVERAPAMIL]
–,substrate [+],COc1ccc(CCN(C)CCCC(C#N)(c2ccc(OC)c(OC)c2)C(C)C)cc1OC (stereo unspecified) [VERAPAMIL]
